Laboratory results: the Deep4Chem optical property database
Values joined by “and” are separate entries in the source; they are usually repeats but may differ in a detail not shown here. Equal entries are not always repeated. One block for each molecule: values may come before it.

Test: solvent given as SMILES

Compound: CN1C(=CC2=C([O-])C(=Cc3oc4ccccc4[n+]3C)C2=C(C#N)C#N)C(C)(C)c2ccccc21
absorption maximum (in ClC(Cl)Cl): 655 nm

Compound: Clc1ccc(/C=C/c2ccncn2)cc1
absorption maximum (in ClCCl): 310 nm

Compound: CCN(CC)c1ccc2cc(/C=C(\C#N)c3nc4ccccc4o3)c(=O)oc2c1
absorption maximum (in C1COCCO1): 497 nm | absorption maximum (in CC#N): 510 nm | absorption maximum (in CCO): 516 nm | absorption maximum (in CCOC(C)=O): 506 nm | absorption maximum (in CN(C)C=O): 529 nm | absorption maximum (in CO): 509 nm | absorption maximum (in CS(C)=O): 519 nm | absorption maximum (in Cc1ccccc1): 500 nm | absorption maximum (in ClCCl): 511 nm

Compound: C#Cc1ccc2c(C)cc(=O)oc2c1
absorption maximum (in CCO): 325 nm

Compound: Cn1cccc1-c1cc(C#N)ccc1C#N
absorption maximum (in C1CCOC1): 370 nm | absorption maximum (in CC#N): 359 nm | absorption maximum (in CCCCCC): 366 nm | absorption maximum (in CCCCOCCCC): 370 nm | absorption maximum (in CCOCC): 364 nm

Compound: CCN(CC)c1ccc(/C=C2\CC/C(=C\c3ccc(N(c4ccccc4)c4ccccc4)cc3)C2=C(C#N)C#N)cc1
absorption maximum (in CN(C)C=O): 579 nm

Compound: COC(=O)c1ccc(C#Cc2ccc(N(C)C)cc2)cc1
absorption maximum (in C1CCCCC1): 359.51 nm | absorption maximum (in C1CCOC1): 361.89 nm | absorption maximum (in C1COCCO1): 360.5 nm | absorption maximum (in CC1CCCO1): 354.5 nm | absorption maximum (in CC#N): 360.5 nm | absorption maximum (in CC(C)=O): 362 nm | absorption maximum (in CC(C)CC(C)(C)C): 364.5 nm | absorption maximum (in CC(C)O): 360.5 nm | absorption maximum (in CCCCCCCCCCCCCCCC): 365.5 nm | absorption maximum (in CCCCCCCCCCCCCCCCCl): 370.49 nm | absorption maximum (in CCOC(C)=O): 357 nm | absorption maximum (in CCOCC): 354.5 nm | absorption maximum (in CN(C)C=O): 367.5 nm | absorption maximum (in CO): 359 nm | absorption maximum (in CS(C)=O): 370 nm | absorption maximum (in Cc1ccccc1): 369.49 nm

Compound: CCC/N=C/c1cc2ccc(N(C)C)cc2cc1OC
absorption maximum (in C1CCOC1): 369 nm | absorption maximum (in CC#N): 369 nm | absorption maximum (in CC(C)O): 450 nm | absorption maximum (in CCOC(C)=O): 369 nm | absorption maximum (in CN(C)C=O): 374 nm | absorption maximum (in CS(C)=O): 376 nm | absorption maximum (in Cc1ccccc1): 369 nm | absorption maximum (in ClCCl): 368 nm | absorption maximum (in O): 438 nm

Compound: O=C1/C(=C2\Sc3ccc(S(=O)(=O)O)cc3C2=O)Sc2ccc(S(=O)(=O)O)cc21
absorption maximum (in C1COCCO1): 530 nm | absorption maximum (in CN(C)C=O): 551 nm | absorption maximum (in CO): 553 nm | absorption maximum (in CS(C)=O): 553 nm | absorption maximum (in O): 546 nm

Compound: Cc1ccc(C#Cc2ccc3ccc(=O)oc3c2)cc1
absorption maximum (in CC#N): 304 nm

Compound: Cc1ccc(C2=C3C=CC4=[N+]3[P-](=O)(=O)n3c2ccc3-c2ccc([nH]2)/C(c2ccc(C)cc2)=c2/cc/c(o2)=C(\c2ccc(C)cc2)c2ccc4[nH]2)cc1
absorption maximum (in ClC(Cl)Cl): 708 nm

Compound: O=c1oc2ccccc2cc1-c1nc2ccccc2o1
absorption maximum (in C1CCOC1): 354 nm | absorption maximum (in C1COCCO1): 357 nm | absorption maximum (in CC1CCCCC1): 356 nm | absorption maximum (in CC#N): 352 nm | absorption maximum (in CC(C)=O): 352 nm | absorption maximum (in CC(C)CO): 353 nm | absorption maximum (in CC(C)O): 354 nm | absorption maximum (in CCOC(C)=O): 352 nm | absorption maximum (in CN(C)C=O): 352 nm | absorption maximum (in CO): 352 nm | absorption maximum (in CS(C)=O): 354 nm | absorption maximum (in Cc1ccccc1): 360 nm | absorption maximum (in ClC(Cl)(Cl)Cl): 360 nm | absorption maximum (in ClC(Cl)Cl): 356 nm | absorption maximum (in OCCO): 354 nm

Compound: CCCCC(CC)CN1C(=O)c2cccc3c(C#Cc4ccc(N(c5ccc(C#Cc6ccc7c8c(cccc68)C(=O)N(CC(CC)CCCC)C7=O)cc5)c5ccc(C#Cc6ccc7c8c(cccc68)C(=O)N(CC(CC)CCCC)C7=O)cc5)cc4)ccc(c23)C1=O (stereo not drawn)
absorption maximum (in C1CCCCC1): 444 nm | absorption maximum (in C1CCOC1): 447 nm | absorption maximum (in CC#N): 454 nm | absorption maximum (in Cc1ccccc1): 446 nm | absorption maximum (in ClC(Cl)Cl): 453 nm

Compound: CCN(CC)/C(C)=N\c1ccc2c3c(cccc13)C(=O)c1ccccc1-2
absorption maximum (in C1CCOC1): 472 nm | absorption maximum (in CCCCCC): 444 nm | absorption maximum (in CCO): 473 nm | absorption maximum (in CCOC(C)=O): 463 nm | absorption maximum (in CN(C)C=O): 479 nm | absorption maximum (in CO): 472 nm | absorption maximum (in Cc1ccccc1): 461 nm | absorption maximum (in ClC(Cl)(Cl)Cl): 467 nm | absorption maximum (in ClC(Cl)Cl): 467 nm | absorption maximum (in ClCCl): 467 nm | absorption maximum (in c1ccccc1): 462 nm

Compound: CC(=O)Nc1cc2ccc3cccc4ccc(c1)c2c34
absorption maximum (in CC#N): 334 nm | absorption maximum (in CCCCOCCCC): 336 nm | absorption maximum (in CO): 334 nm

Compound: Cc1ccc(C)c(C)c1
absorption maximum (in C1CCCCC1): 263.78 nm

Compound: CCCC1(CCC)c2ccccc2-c2ccccc21
absorption maximum (in C1CCCCC1): 304 nm

Compound: COc1ccccc1-n1nc(C#N)c(N2CCCC2)n1
absorption maximum (in CC#N): 318 nm

Compound: Cc1cc(C)nc(N)n1
absorption maximum (in CCO): 297 nm | absorption maximum (in CO): 296 nm | absorption maximum (in O): 284 nm

Compound: CC(C)(C)c1ccc(-c2c3ccccc3c3n2[B-](F)(F)[N+]2=Cc4c5ccccc5c(-c5ccc(C(C)(C)C)cc5)n4[B-](F)(F)[N+]2=C3)cc1
absorption maximum (in CC#N): 557 nm | absorption maximum (in CCCCCC): 568 nm | absorption maximum (in CN(C)C=O): 566 nm | absorption maximum (in Cc1ccccc1): 573 nm | absorption maximum (in ClCCl): 567 nm

Compound: CN(C)c1ccc(/C=C/c2cc(/C=C/c3ccc(N(C)C)cc3)nc(/C=C/c3ccc(C(F)(F)F)cc3)n2)cc1
absorption maximum (in ClCCl): 429 nm

Compound: F[B-]1(F)OC(C#Cc2ccccc2)=CC(c2ccccc2)=[O+]1
absorption maximum (in ClCCl): 401 nm

Compound: CCCCCCCCCCn1nnc(-c2ccc(C#Cc3ccc(C#Cc4ccc(-c5nnn(CCCCCCCCCC)n5)cc4)c4nc5c6ccccc6c6ccccc6c5nc34)cc2)n1
absorption maximum (in C1CCOC1): 428 nm | absorption maximum (in Cc1ccccc1): 428 nm | absorption maximum (in ClCCl): 428 nm

Compound: CCC1(CC)c2ccccc2-c2c1c1c(c3c2C(CC)(CC)c2cc(-c4cccs4)ccc2-3)C(CC)(CC)c2cc(N(c3ccccc3)c3ccccc3)ccc2-1
absorption maximum (in C1CCOC1): 355 nm

Compound: CON(OC)c1cc2c3cc(-c4c(C)cc(C)cc4C)cc4c5cc(-c6c(C)cc(C)cc6C)cc6c7cc(B(c8c(C)cc(C)cc8C)c8c(C)cc(C)cc8C)cc8c9cc(-c%10c(C)cc(C)cc%10C)cc%10c%11cc(-c%12c(C)cc(C)cc%12C)cc%12c(c1)c2c1c(c43)c(c65)c(c78)c(c9%10)c1c%11%12
absorption maximum (in C1CCOC1): 452 nm | absorption maximum (in CC(C)=O): 445 nm | absorption maximum (in CCCCCC): 453 nm | absorption maximum (in Cc1ccccc1): 461 nm | absorption maximum (in ClC(Cl)Cl): 449 nm | absorption maximum (in ClCCl): 450 nm

Compound: CCOC(=O)COc1ccc(/C=C/c2cc(C)c3n2[B-](F)(F)[N+]2=C(c4[nH]c(C)cc4C)c4ccccc4C2=C3)cc1
absorption maximum (in C1CCOC1): 679 nm | absorption maximum (in CC#N): 670 nm | absorption maximum (in CCCCCC): 679 nm | absorption maximum (in CO): 671 nm | absorption maximum (in Cc1ccccc1): 678 nm | absorption maximum (in ClCCl): 680 nm

Compound: CC[N+]1(CC)CN2C(=N1)C(C(=O)O)=Cc1cc(SC)ccc12
absorption maximum (in O): 397 nm

Compound: CCc1c(C)[nH]c(C2=[N+]3C(=C(C)c4c(C)c(CC)c(C)n4[B-]3(F)F)c3ccccc32)c1C
absorption maximum (in C1CCOC1): 618 nm | absorption maximum (in CC#N): 610 nm | absorption maximum (in CCCCCC): 620 nm | absorption maximum (in CO): 613 nm | absorption maximum (in Cc1ccccc1): 625 nm | absorption maximum (in ClCCl): 619 nm

Compound: CC1=C(C)C(c2c(C)c(C)c3n2[B-](F)(F)[N+]2=C(C)C(C)=C(C)C2=C3)=[N+]2C1=Cc1c(C)c(C)c(C)n1[B-]2(F)F
absorption maximum (in ClCCl): 562 nm

More lines, now with the values ahead:

absorption maximum (in ClCCl): 425 nm
Compound: O=[N+]([O-])c1ccc(-c2nc(/C=C/c3ccc(Cl)cc3)c(/C=C/c3ccc(Cl)cc3)[nH]2)cc1

absorption maximum (in CS(C)=O): 736 nm
Compound: O=C(O)COc1cccc(-c2c3nc(cc4ccc([nH]4)c(-c4cccc(OCC(=O)O)c4)c4nc(cc5ccc2[nH]5)CC4)CC3)c1

absorption maximum (in ClCCl): 417 nm
Compound: Brc1ccc(N(c2ccc(/C=C/c3ccncn3)cc2)c2ccc(/C=C/c3ccncn3)cc2)cc1

absorption maximum (in ClCCl): 355 nm
Compound: CC1(C)C2=C(c3ccccc31)S(=O)(=O)c1ccccc12

absorption maximum (in CCO): 388 nm | absorption maximum (in ClC(Cl)Cl): 392 nm
Compound: CCOc1ccc2c(-c3nc(-c4ccccc4)no3)cc(=O)oc2c1

absorption maximum (in CCO): 623 nm | absorption maximum (in CS(C)=O): 630 nm | absorption maximum (in O): 555 nm
Compound: CC1(C)C(/C=C/c2cc3ccc(O)cc3oc2=O)=[N+](CCCS(=O)(=O)[O-])c2ccccc21

absorption maximum (in ClCCl): 402 nm
Compound: Cc1cc(-c2ccc(C(C)(C)C)cc2)c2nsnc2c1-c1ccc(N(c2ccccc2)c2ccccc2)cc1

absorption maximum (in ClCCl): 323 nm
Compound: CCOC(=O)c1c(-c2cc3ccccc3oc2=O)nn(-c2ccc(Cl)cc2)c1C(=O)OCC

absorption maximum (in C1CCOC1): 401 nm | absorption maximum (in CC#N): 398 nm | absorption maximum (in CO): 391 nm | absorption maximum (in ClCCl): 400 nm
Compound: COc1cc(-c2nc3c4cccnc4c4ncccc4c3[nH]2)c(OC)cc1/C=C/c1nc2ccccc2[nH]1

absorption maximum (in ClCCl): 611 nm
Compound: CC1=c2ccccc2=[N+]2C1=Cc1c3ccccc3c(-c3[nH]c4ccccc4c3C)n1[B-]2(F)F

absorption maximum (in ClC(Cl)Cl): 390 nm
Compound: COc1cc(OC)c2c(c1)c1cc3oc(=O)cc(C)c3cc1c1cc(OC)cc(OC)c12

absorption maximum (in ClCCl): 503 nm
Compound: c1ccc(C2=C(c3ccccc3)c3cccc4c3c(cc3nc5c(-c6ccccc6)ccc(-c6ccccc6)c5nc34)O2)cc1

absorption maximum (in CC#N): 365 nm and 334 nm
Compound: Cn1c(-c2ccc(-c3nc(-c4ccccc4)c(-c4ccccc4)n3C)cc2)nc(-c2ccccc2)c1-c1ccccc1

absorption maximum (in ClC(Cl)Cl): 626 nm
Compound: Cc1cc(C)c(C2=C3C=CC4=[N+]3[B-]3(Oc5ccccc54)Oc4ccccc4-c4ccc2n43)c(C)c1 (stereo not drawn)

absorption maximum (in CCCCCC): 630 nm
Compound: CC1=[N+]2C(=C(c3ccccc3)c3c4c5ccccc5c5ccccc5c4c(C)n3[B-]2(F)F)c2c1c1ccccc1c1ccccc21

absorption maximum (in C1CCOC1): 405 nm
Compound: CCN(CC)c1ccc(-c2nc3c(nc2-c2ccc(B(c4c(C)cc(C)cc4C)c4c(C)cc(C)cc4C)cc2)c2ccccc2n3C)cc1

absorption maximum (in ClCCl): 312 nm
Compound: Cc1cc2cc(C)c3c4ccccc4[nH]c3c2s1

absorption maximum (in CO): 295 nm
Compound: COc1ccc(-c2nc(-c3ccc(OC)cc3)c(-c3ccc(OC)cc3)[nH]2)cc1

absorption maximum (in ClCCl): 379 nm
Compound: CCN(CC)c1ccc2c(c1)oc(=O)c1cc3cnn(-c4ccccc4)c3nc12

absorption maximum (in CC#N): 412 nm
Compound: F[B-]1(F)OC(c2ccc3c(c2)Cc2ccccc2-3)=CC(c2ccccc2)=[O+]1

absorption maximum (in CC#N): 465 nm
Compound: C[n+]1cc2ccc3c[n+](C)c4ccccc4c3c2c2ccccc21
